# Test results reported in US20250206779A1, “ANGIOTENSIN-(1-9) ANALOGUE BASED ON D AMINO ACIDS, PHARMACEUTICAL COMPOSITIONS AND USES THEREOF” (UNIVERSIDAD DE CHILE, priority 2021, published 2025).
# Where a SMILES comes first, the peptide text is derived from it. Where no end group is shown, it is not given here. [ ]: non-standard residue; d: D form.
# What was measured:
# [1] = Stability in human serum determined by HPLC; assay type: in vitro ADME; conditions: 37° C.
# Description: The retro-inverse peptides were dissolved in PBS to obtain a final concentration of 1 mM. From this stock, an aliquot of 50 μL was taken and diluted to 450 μL of human serum (Sigma Aldrich from human male AB plasma, USA origin, sterile-filtered) at 37° C. under agitation, to obtain an initial concentration of […] and incubated for 48 h. Aliquots of 50 μL were extracted at 0, 5, 10 min and 1, 3, 6, 24 and 48 h and added to 200 μL of methanol at 4° C. for 30 min to precipitate serum proteins. The samples were then centrifuged at 13,000 g in Hermle Cooling Centrifuge Z 326 K 311.00 V01 at 4° C. for 30 min. The supernatants (approximately 200 μL) were obtained, placed in vials, and then analyzed by HPLC. All analyzes were performed on the Perkin Elmer auto sampler flexo HPLC, using a reverse phase 4.6×100 mm column with a particle size of […] (Waters XBridge Peptide BEH C18 Column). Mobile phase A was 100% acetonitrile and phase B was TFA 0.0004% in Milli-Q water. The initial composition of eluent was 5% A and 95% B for 1 min and then a linear gradient to reach 100% A in 19 min and then return to the initial composition in 4 min, with a total run time of 25 min. The eluent flow was 0.9 mL/min and the temperature of the column was adjusted to 26° C. L measurement was performed at a UV signal of 220 nm wavelength. Where 50 μL was injected per sample. Peptides were identified based on their retention time in the respective chromatogram obtained in the Chromera-HPLC flexar program.
# [2] = test system: cardiac myocytes isolated from neonatal Sprague-Dawley rat ventricles; experiment: Norepinephrine-induced cardiomyocyte hypertrophy, western blot of β-MHC and ANP; assay type: cell-based; conditions: 1, 10 or 100 μM peptide, 10 μM norepinephrine
# Description: Cardiac myocytes were isolated from neonatal Sprague-Dawley rat ventricles. Cardiac myocytes were plated at 70% final density in gelatin-coated wells (12-well plates) or in 60-mm Petri dishes and maintained at 37° C. in a humidified atmosphere of 5% CO2/95% air for 24 h in Dulbecco's Modified Eagle's medium [(DMEM)/M199](4:1) containing 10% fetal bovine serum and 5% fetal calf serum. Serum was withdrawn 24 h before preincubation with 1, 10 or 100 μM retro-inverse angiotensin-(1-9) for 1 h; then, 10 μM norepinephrine (Sigma, St Louis, Missouri, USA) were added and the cultures were incubated for 24 h. Then cells were washed with PBS at 4° C. and then cells were lysed with 50 μL of RIPA lysis buffer (Tris-HCl 10 mM pH 7.4, EDTA 5 mM, NaCl 50 mM, deoxycholic acid 1%, Triton X-100 1% v/v) supplemented with phosphatase and protease inhibitors (Roche). After centrifugation at 12,000 r.p.m. for 15 min at 4° C., the supernatat was recovered; total protein content was determined by using Bradford (BioRad protein assay, BioRad, Hercules, CA, USA). Proteins were denatured in SDS-PAGE 4× buffer and resolved in 12% PAGE-SDS. After electrotransference, beta-myosin heavy chain (β-MHC) and atrial natriuretic peptide (ANP) were used as hypertrophic markers. β-tubulin was used as loading control. As expected, norepinephrine 10 μM for […], a cardiomyocyte hypertrophy inducer, triggered β-MHC and ANP increase (FIG. 3).
# [3] = test system: adult rat cardiac fibroblasts; experiment: Cardiac fibroblast proliferation, cell count in Neubauer chamber; assay type: cell-based; conditions: DMEM F-12 5% FBS, 24 h, trypan blue cell count
# Description: Male Sprague-Dawley rats (250-300 g) were anesthetized with ketamine-xylazine (66 and 1.6 mg/kg i.p., respectively). Adult rat cardiac fibroblasts were isolated by retrograde aortic perfusion. Briefly, hearts were digested with collagenase type B solution for 1 h, and cells were centrifuged at 500 rpm for 2 min. The supernatant, mainly adult rat cardiac fibroblasts, was centrifuged at 1000 rpm for 10 min, resuspended in Dulbecco's Modified Eagle Medium: Nutrient Mixture F-12 (DMEM F-12) plus 15% fetal bovine serum (FBS) and then seeded in nontreated culture dishes during 3 h. Cells were washed with phosphate buffered saline to eliminate debris and nonadherent cells. Adult rat cardiac fibroblasts were used at passage one and seeded on 60 mm cell culture dishes in DMEM F-12 plus 10% FBS and incubated at […] for 3 h. To synchronize cells, they were washed and incubated in DMEM F-12 (without serum, 0% FBS) for 24 h before experimentation. Cell proliferation was determined in cardiac fibroblasts incubated for 24 h with and without retro-inverse angiotensin-(1-9) in DMEM F-12 5% FBS. Cells were trypsinized and cell number was determined using trypan blue method in a Neubauer chamber.
compound,measurement,setting,value
"CC[C@@H](C)[C@@H](NC(=O)[C@@H](Cc1c[nH]cn1)NC(=O)[C@H]1CCCN1C(=O)[C@@H](Cc1ccccc1)NC(=O)[C@H](N)Cc1c[nH]cn1)C(=O)N[C@H](Cc1ccc(O)cc1)C(=O)N[C@@H](C(=O)N[C@H](CCCNC(=N)N)C(=O)N[C@H](CC(=O)O)C(N)=O)C(C)C [retro-inverse angiotensin-(1-9) amide, ^DH^DF^DP^DH^DI^DY^DV^DR^DD-CONH2] (H-[dH][dF][dP][dH][dI][dY][dV][dR][dD]-NH2)",degradation after incubation with human serum,[1]; 24 h incubation,no significant degradation
same,increase of ANP induced by norepinephrine,[2],blocked
"DRVYIHPFH [angiotensin-(1-9), Asp-Arg-Val-Tyr-Ile-His-Pro-Phe-His]",degradation after incubation with human serum,[1]; 3 h incubation,completely degraded
"O=c1[nH]c(=O)n([C@H]2C[C@H](O)[C@@H](CO)O2)cc1Br [bromodeoxyuridine, reference compound]",fibroblast proliferation,[3],comparable to bromodeoxyuridine
